Laboratory results as given in article PMC4242082, “Mechanistic determinants of the directionality and energetics of active export by a heterodimeric ABC transporter” (Nature Communications, 2014).
Substitutions are numbered along the chain they refer to. Like-named read-outs stand apart in the source and are kept apart here.

How the values were obtained:
rat TAP1-NBD [1] = molecular target: T1, rat TAP1-NBD (Rattus norvegicus, UniProt P36370, D651A); experiment: fluorescence polarization competition with ATP-Bodipy; format: binding
T1 construct: monomer-homodimer equilibrium
T1 sequence (P36370 465-725 D651A): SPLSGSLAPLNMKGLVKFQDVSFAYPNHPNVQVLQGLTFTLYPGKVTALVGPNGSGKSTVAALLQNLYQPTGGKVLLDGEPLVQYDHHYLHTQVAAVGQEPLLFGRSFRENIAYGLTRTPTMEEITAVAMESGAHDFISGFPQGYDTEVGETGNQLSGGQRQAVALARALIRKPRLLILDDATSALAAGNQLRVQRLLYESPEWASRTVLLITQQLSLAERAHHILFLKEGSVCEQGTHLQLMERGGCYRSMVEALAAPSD
From the text: (§1) fluorescence polarization competition with ATP-Bodipy on rat TAP1-NBD | affinities for ATP and ADP of isolated wt and D-loop (D651A) mutant rat TAP1-NBD

rat TAP1-NBD [2] = molecular target: T2, rat TAP1-NBD (Rattus norvegicus, UniProt P36370); experiment: as above; format: binding
T2 construct: monomer-homodimer equilibrium
T2 sequence (P36370 465-725): T1 sequence (P36370 465-725 D651A) with A187D
From the text: as §1

[3] = molecular target: T3, TAP with tapasin-TAP2 fusion (Tsn-TAP) (Homo sapiens, UniProt Q03518+Q03519); experiment: competition with 8-azido-[α-32P]ATP photo-crosslinking; format: binding; conditions: 200-fold excess, 1 mM MgCl2, pH 7.4, 4 °C
T3 construct: gene TAP1; purified heterodimer from Sf9 cells in digitonin; TAP2 fused N-terminally to tapasin (TAPBP) only to separate the subunits on the gel
T3 sequence (Q03518 1-748): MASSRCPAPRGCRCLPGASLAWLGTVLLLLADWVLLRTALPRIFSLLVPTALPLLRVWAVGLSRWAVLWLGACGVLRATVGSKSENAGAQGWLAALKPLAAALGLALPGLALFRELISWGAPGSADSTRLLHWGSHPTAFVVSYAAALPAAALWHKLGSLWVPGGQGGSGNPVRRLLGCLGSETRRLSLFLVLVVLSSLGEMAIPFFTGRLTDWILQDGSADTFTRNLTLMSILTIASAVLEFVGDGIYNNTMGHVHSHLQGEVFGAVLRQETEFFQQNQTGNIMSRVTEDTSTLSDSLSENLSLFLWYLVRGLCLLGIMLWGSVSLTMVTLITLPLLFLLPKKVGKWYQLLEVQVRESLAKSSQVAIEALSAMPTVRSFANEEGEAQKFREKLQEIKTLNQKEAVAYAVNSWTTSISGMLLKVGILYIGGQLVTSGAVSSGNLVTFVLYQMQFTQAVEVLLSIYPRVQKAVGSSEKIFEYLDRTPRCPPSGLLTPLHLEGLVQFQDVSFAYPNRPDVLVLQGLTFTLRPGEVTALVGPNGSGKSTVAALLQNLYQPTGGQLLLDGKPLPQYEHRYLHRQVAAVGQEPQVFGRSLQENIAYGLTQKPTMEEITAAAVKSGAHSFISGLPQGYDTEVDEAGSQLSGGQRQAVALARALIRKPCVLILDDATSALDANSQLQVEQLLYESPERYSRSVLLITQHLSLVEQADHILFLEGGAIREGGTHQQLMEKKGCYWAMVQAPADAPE
T3 sequence (Q03519 1-686): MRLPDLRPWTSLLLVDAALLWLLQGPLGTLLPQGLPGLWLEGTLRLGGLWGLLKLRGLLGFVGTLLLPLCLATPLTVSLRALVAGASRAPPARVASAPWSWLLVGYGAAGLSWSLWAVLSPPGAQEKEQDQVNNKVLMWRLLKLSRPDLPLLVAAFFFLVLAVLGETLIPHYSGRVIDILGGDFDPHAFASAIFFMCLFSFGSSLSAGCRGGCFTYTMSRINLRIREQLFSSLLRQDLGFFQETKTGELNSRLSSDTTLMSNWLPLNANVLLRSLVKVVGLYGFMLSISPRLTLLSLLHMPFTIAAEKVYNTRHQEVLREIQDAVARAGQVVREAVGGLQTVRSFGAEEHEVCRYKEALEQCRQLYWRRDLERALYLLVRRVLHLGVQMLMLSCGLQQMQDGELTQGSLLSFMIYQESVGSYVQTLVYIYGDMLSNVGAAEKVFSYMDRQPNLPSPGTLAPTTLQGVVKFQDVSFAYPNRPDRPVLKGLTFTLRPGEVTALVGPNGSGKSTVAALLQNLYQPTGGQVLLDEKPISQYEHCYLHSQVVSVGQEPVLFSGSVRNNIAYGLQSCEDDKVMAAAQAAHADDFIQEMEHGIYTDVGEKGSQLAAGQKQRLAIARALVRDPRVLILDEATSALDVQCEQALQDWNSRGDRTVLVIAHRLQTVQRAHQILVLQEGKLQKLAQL
T3 sequence (O15533 21-448 partner): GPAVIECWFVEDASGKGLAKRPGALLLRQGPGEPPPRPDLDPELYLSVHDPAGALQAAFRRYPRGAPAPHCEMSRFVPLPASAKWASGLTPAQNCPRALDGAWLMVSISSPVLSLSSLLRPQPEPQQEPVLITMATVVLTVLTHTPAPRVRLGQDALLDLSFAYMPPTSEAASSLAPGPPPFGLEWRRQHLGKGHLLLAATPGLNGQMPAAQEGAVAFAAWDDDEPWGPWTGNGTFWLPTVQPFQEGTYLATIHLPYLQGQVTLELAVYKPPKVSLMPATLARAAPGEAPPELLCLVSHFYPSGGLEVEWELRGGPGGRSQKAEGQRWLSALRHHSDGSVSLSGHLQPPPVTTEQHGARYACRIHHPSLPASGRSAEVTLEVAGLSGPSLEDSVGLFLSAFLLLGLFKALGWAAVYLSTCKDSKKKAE

rat TAP1-NBD [4] = molecular target: T2, rat TAP1-NBD; experiment: biochemical; parameters: fluorescence polarization competition of unlabelled nucleotide against 1 uM ATP-Bodipy, TAP1-NBD
Description: Nucleotide-stripped TAP1-NBD samples were re-concentrated to ~100 μM, and used to make a series of eight twofold dilutions in assay buffer (20 mM Tris, pH 8.0, 50 mM NaCl, 1 mM dithiothreitol) with 1 μM ATP-Bodipy (Invitrogen). A background control contained no protein. For competitive binding experiments, NBDs (25 μM final) were mixed with 1 μM ATP-Bodipy and a series of ten twofold dilutions of unlabelled nucleotide, with samples with no labelled nucleotide serving as background control. Fluorescence polarization was measured in FlexStation 3 with excitation at 488 nm. All samples were run two or three times in triplicates. Data were analysed with Origin (OriginLab Corp.). Binding affinities of unlabelled nucleotides (Kis) were obtained using Ki=IC50/([L]/Kd+1). To explore the molecular mechanism of antigen translocation, wt TAP and the D674A/wt complex were purified and functionally reconstituted in proteoliposomes. […] Furthermore, the Michaelis–Menten kinetics for peptide transport by wt TAP and D674A/wt are equal (Fig. 2c, Supplementary Fig. 2c and Supplementary Table 3), confirming that the affinity for ATP and peptides is not affected by the D-loop substitution.

rat TAP1-NBD [5] = molecular target: T2, rat TAP1-NBD; experiment: fluorescence polarization, direct titration; format: binding; conditions: pH 8.0, 20 mM Tris, 50 mM NaCl, 1 mM dithiothreitol; labelled compound
From the text: fluorescence polarization, direct titration on rat TAP1-NBD | series of eight twofold dilutions in assay buffer

rat TAP1-NBD [6] = molecular target: T4, rat TAP1-NBD (Rattus norvegicus, UniProt P36370, D645N/D651A); experiment: X-ray crystal structure, […] Å; format: binding; conditions: crystals pH 8.0; canonical NBD dimer with two ATP
T4 construct: monomer-homodimer equilibrium
T4 sequence (P36370 465-725 D645N/D651A): T1 sequence (P36370 465-725 D651A) with D181N

[7] = molecular target: T5, TAP (TAP1/TAP2 complex; wt TAP) (Homo sapiens, UniProt Q03518+Q03519); experiment: ATP binding affinity; conditions: type of constant not stated in main text
T5 construct: full-length heterodimer from Sf9 insect cells (baculovirus), purified and reconstituted in proteoliposomes, or in membranes
T5 sequence (Q03518 1-748): T3 sequence (Q03518 1-748)
T5 sequence (Q03519 1-686): T3 sequence (Q03519 1-686)

[8] = molecular target: T5, TAP (TAP1/TAP2 complex; wt TAP); experiment: biochemical; parameters: species or system Sf9; ATP-agarose competition binding assay with TAP-containing Sf9 membranes; conditions: read-out: ATP binding IC50

| Kd (rat TAP1-NBD [5]) | Compound | Ki (rat TAP1-NBD [1]) | Ki (rat TAP1-NBD [2]) | competition with 8-azido-[α-32P]ATP photo-crosslinking [3] | IC50 (rat TAP1-NBD [4]; read-out: IC50 (µM) ADP) | X-ray crystal structure, 2.65 Å (rat TAP1-NBD [6]) | affinity [7] | IC50 [8] | IC50 (rat TAP1-NBD [4]; read-out: IC50 (µM) ATP) |
| --- | --- | --- | --- | --- | --- | --- | --- | --- | --- |
| – | Nc1ncnc2c1ncn2[C@@H]1O[C@H](COP(=O)(O)OP(=O)(O)O)[C@@H](O)[C@H]1O [ADP] | 59 ± 3 µM | 59 ± 2 µM | wt and D674A/wt TAP showed the same binding properties for ATP, ADP (Fig. 2b) | 69 ± 14 µM | – | – | – | – |
| 6.1 ± 1.7 µM | ATP-Bodipy | – | – | – | – | – | – | – | – |
| – | Nc1ncnc2c1ncn2[C@@H]1O[C@H](COP(=O)(O)OP(=O)(O)OP(=O)(O)O)[C@@H](O)[C@H]1O [ATP] | 148 ± 9 µM | 119 ± 13 µM | – | – | the two ATPs and their binding sites are essentially unaffected by this structural re-organization | all mutants displayed similar affinity for peptides and ATP as compared with wt TAP | 10 ± 1 µM | 139 ± 30 µM |
